We go through one compound from US20260108614A1, “IMMOBILIZED ENDOGLYCOSIDASE FUSION PROTEIN AND USE THEREOF” (GENEQUANTUM HEALTHCARE (SUZHOU) CO., LTD., priority 2022, published 2026).

Where two headings read alike, the source gives them in different places. Square brackets hold non-standard residues; d marks the D form. Peptide text beside a SMILES is read from it. * marks the point of attachment. Dolaproine = CO[C@@H]([C@@H]1CCCN1)[C@@H](C)C(=O)O; Dil = CC[C@H](C)[C@H](NC)[C@@H](CC(=O)O)OC; X1 = C[C@@H](N*)[C@@H](O)c1ccccc1; NMeV = CN[C@H](C(=O)O)C(C)C

Assay [1] deals with ErbB2/Her2-positive cells. Description: Tumor cell proliferation inhibition, ErbB2/Her2-positive cells as a group. In kind it is cell-based, human. The following applies: Example 9; BT-474 and NCI-N87.
The test system of the next assay is TROP2-positive cells. Nature of the assay: Tumor cell proliferation inhibition, TROP2-positive cells as a group. The class given is cell-based, human. The following applies: Example 19; BxPC-3 and FaDu. As to the method:
(§1) 1) ErbB2/Her2-positive human breast cancer cells BT-474, ErbB2/Her2-positive human gastric cancer cells NCI-N87 and ErbB2/Her2-negative human liver cancer cells HepG2 were inoculated into a 96-well cell plate at 100 μl/well (1000 to 10000 cells), and incubated overnight in a cell incubator under the conditions of 37° C., 5% CO2, and 100% humidity.
(§2) Incubation was further performed at 37° C. for 72 to 120 h.
(§3) 3) The cell plate was removed from the 37° C. cell incubator, and equilibrated for about 30 min to room temperature. 100 μl of CellTiter Glo reagent was added into each well, a shaker shook for 2 min, followed by standing in a dark place at room temperature for 10 min, and a relative light unit (RLU) was measured with an MD M4 microplate reader.
(§4) BxPC-3, FaDu, HepG2 and other human tumor cells were selected.
(§5) TROP2-positive human tumor cells such as BxPC-3 (human pancreatic cancer cell) and FaDu (human throat cancer cell), and TROP2-negative tumor cells such as HepG2 (human liver cancer cell) were selected.

In assay [2] the test system is ErbB2/Her2-positive human gastric cancer cells NCI-N87. Description: Tumor cell proliferation inhibition (CellTiter Glo), NCI-N87. The class given is cell-based. The following applies: Table 3; incubation 72 to 120 h; "—" = undetected; read-out: Inhibitory effect on proliferation of Tumor Cells (IC50, nM), NCI-N87. As to the method: as §1, §2, §3
The subject of assay [3] is BxPC-3 (human pancreatic cancer cell). Description: Tumor cell proliferation inhibition, BxPC-3. The following applies: Table 7; TROP2-positive; "—" = undetected; read-out: Inhibitory effect on proliferation of Tumor Cells (IC50, nM), BxPC-3. The class given is cell-based. On the procedure:
as §1, §2, §3, §4, §5

The test system of assay [4] is FaDu (human throat cancer cell). Nature of the assay: Tumor cell proliferation inhibition, FaDu. The class given is cell-based. The settings on record: Table 7; TROP2-positive; "—" = undetected; read-out: Inhibitory effect on proliferation of Tumor Cells (IC50, nM), FaDu. On the procedure: as §1, §2, §3, §4, §5
The subject of assay [5] is human liver cancer cells HepG2. Nature of the assay: Tumor cell proliferation inhibition (CellTiter Glo), HepG2. The class given is cell-based. The following applies: "—" = undetected, read-out: Inhibitory effect on proliferation of Tumor Cells (IC50, nM), HepG2. On the procedure:
as §1, §2, §3, §4, §5
(In general: In ATP-based viability assays light output follows the ATP content of the culture.)

Assay [6] relates to ErbB2/Her2-positive human breast cancer cells BT-474. Description: Tumor cell proliferation inhibition (CellTiter Glo), BT-474. In kind it is cell-based. The settings on record: Table 3; incubation 72 to 120 h; "—" = undetected; read-out: Inhibitory effect on proliferation of Tumor Cells (IC50, nM), BT-474. As to the method:
as §1, §2, §3

`CC[C@H](C)[C@@H]([C@@H](CC(=O)N1CCC[C@H]1[C@H](OC)[C@@H](C)C(=O)N[C@H](C)[C@@H](O)c1ccccc1)OC)N(C)C(=O)[C@@H](NC(=O)[C@@H](NC)C(C)C)C(C)C` [MMAE, monomethylauristatin E, reference compound] (H-[NMeV]V[Dil][Dolaproine]-X1): the “inhibitory effect on proliferation of the ErbB2/Her2-positive cells (in words)” value in assay [1] was “obvious inhibitory effect”. Besides, the “inhibitory effect on proliferation of the TROP2-positive cells (in words)” value in the assay with TROP2-positive cells is “obvious inhibitory effect”. Also, the IC50 in assay [2] stood at 0.248 nM; in assay [3] it was 0.388 nM; in assay [4], 0.167 nM; in assay [5] (Table 3, ErbB2/Her2-negative cells, incubation 72 to 120 h), 0.567 nM; in assay [5] (Table 7, TROP2-negative) it was 0.398 nM; in assay [6], 0.272 nM.
